Tested on: mice
Test: Acute toxicity (LD50) in mice
Format: in vivo
Conditions: 2 g/kg
Excerpt: They also are non-toxic. […] Moreover, there is no evidence that the weight of any of the major organs is altered as a result of treatment with compounds used in the invention.

With CC(=O)CN1C(=O)c2ccccc2C1=O [1-N--Phthalimidopropan-2-one] the deaths was “no deaths were observed”.

Source: patent USRE32868E, “Antihyperlipidemic compositions” (Research Corporation, priority 1985, dated 1989)
